In patent publication US20230091225A1, “Bifunctional chimeric heterocyclic compounds for targeted degradation of androgen receptors and use thereof” (HINOVA PHARMACEUTICALS INC., priority 2019, published 2023):

target: T1, androgen receptor (AR) (Homo sapiens, UniProt P10275); experiment: Degradation of androgen receptor (AR) protein in VCaP cells by Western blot; type: cell-based; conditions: percentage of degraded AR at 100 nM, VCaP cells, 16 h
T1 sequence (P10275 1-920): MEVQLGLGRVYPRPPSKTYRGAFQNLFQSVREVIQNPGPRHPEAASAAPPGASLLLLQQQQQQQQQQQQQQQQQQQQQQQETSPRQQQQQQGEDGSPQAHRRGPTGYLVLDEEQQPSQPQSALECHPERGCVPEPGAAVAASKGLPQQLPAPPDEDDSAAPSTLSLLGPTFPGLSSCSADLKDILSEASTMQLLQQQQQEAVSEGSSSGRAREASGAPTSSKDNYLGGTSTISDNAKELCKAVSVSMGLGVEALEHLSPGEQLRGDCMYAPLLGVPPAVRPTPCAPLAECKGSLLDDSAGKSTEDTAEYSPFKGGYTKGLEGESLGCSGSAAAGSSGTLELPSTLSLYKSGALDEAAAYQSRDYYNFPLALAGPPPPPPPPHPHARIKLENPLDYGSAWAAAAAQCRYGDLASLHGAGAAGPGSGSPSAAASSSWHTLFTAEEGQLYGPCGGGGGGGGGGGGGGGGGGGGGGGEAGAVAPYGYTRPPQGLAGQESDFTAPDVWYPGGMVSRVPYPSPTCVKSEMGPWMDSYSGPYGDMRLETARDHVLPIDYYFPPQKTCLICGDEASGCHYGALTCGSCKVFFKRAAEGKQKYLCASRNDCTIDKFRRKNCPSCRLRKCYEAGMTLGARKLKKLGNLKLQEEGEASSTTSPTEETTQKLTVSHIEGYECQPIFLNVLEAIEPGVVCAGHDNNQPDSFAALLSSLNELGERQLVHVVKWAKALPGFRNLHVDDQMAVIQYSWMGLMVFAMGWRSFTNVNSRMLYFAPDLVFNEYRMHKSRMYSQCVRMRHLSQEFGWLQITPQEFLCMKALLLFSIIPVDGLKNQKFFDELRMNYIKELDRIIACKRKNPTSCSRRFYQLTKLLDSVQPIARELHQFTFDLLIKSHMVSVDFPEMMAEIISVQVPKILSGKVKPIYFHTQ
Procedure, shortened: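 AR and β-actin levels were read by Western blot with ECL detection, loading 30 μg lysate protein per well. Before lysis, VCaP cells seeded at 5×10^5/well and grown overnight were exposed to compound for 16 h, two wells per concentration, keeping DMSO at 0.1%.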

SMILES	inhibition at 0.1 µM [%]	% degradation
N#Cc1ccc(O[C@H]2CC[C@H](N3Cc4nc(N5CCC(CN6CCC(Nc7ccc8c(c7)C(=O)N(C7CCC(=O)NC7=O)C8=O)CC6)CC5)ccc4C3=O)CC2)cc1Cl (stereo partly drawn) [Compound 173]	< 25	–
N#Cc1ccc(OC2C[C@@H]3CN(C(=O)c4cnc(N5CCC(CN6CCN(c7ccc8c(c7)C(=O)N(C7CCC(=O)NC7=O)C8=O)CC6)CC5)cn4)C[C@@H]3C2)cc1Cl (stereo partly drawn) [Compound 174, 2-chloro-4-(((3aR,5r,6aS)-2-(5-(4-((4-(2-(2,6-dioxopiperidin-3-yl)-1,3-dioxoisoindolin-5-yl)piperazin-1-yl)methyl)piperidin-1-yl)pyrazine-2-carbonyl)octahydrocyclopenta[c]pyrrol-5-yl)oxy)benzonitrile]	< 25	–
CC1(C)[C@H](NC(=O)c2cnc(N3C[C@@H]4[C@@H](CN5CCN(c6cc7c(cc6F)C(=O)N(C6CCC(=O)NC6=O)C7=O)CC5)[C@@H]4C3)cn2)C(C)(C)[C@H]1Oc1ccc(C#N)c(Cl)c1 (stereo partly drawn) [Compound 182, N-((1r,3R)-3-(3-chloro-4-cyanophenoxy)-2,2,4,4-tetramethylcyclobutyl)-5-((1R,5S,6S)-6-((4-(2-(2,6-dioxopiperidin-3-yl)-6-fluoro-1,3-dioxoisoindolin-5-yl)piperazin-1-yl)methyl)-3-azabicyclo[3.1.0]hexan-3-yl)pyrazine-2-carboxamide]	50 to 79	–
N#Cc1ccc(OC2CCC(NC(=O)c3cnc(N4C[C@@H]5CN(C6CCN(c7cc8c(cc7F)C(=O)N(C7CCC(=O)NC7=O)C8=O)CC6)C[C@@H]5C4)nc3)CC2)cc1Cl (stereo partly drawn) [Compound 220, N-((1s,4S)-4-(3-chloro-4-cyanophenoxy)cyclohexyl)-2-((3aR,6aS)-5-(1-(2-(2,6-dioxopiperidin-3-yl)-6-fluoro-1,3-dioxoisoindolin-5-yl)piperidine-4-yl)hexahydropyrrolo[3,4-c]pyrrol-2(1H)-yl)pyrimidine-5-carboxamide]	–	D (<25%)
N#Cc1ccc(O[C@H]2CC[C@@H](NC(=O)c3cnc(N4CCN([C@@H]5C[C@@H]6CN(c7cc8c(cc7F)C(=O)N(C7CCC(=O)NC7=O)C8=O)C[C@@H]6C5)CC4)cn3)CC2)cc1Cl (stereo partly drawn) [Compound 295, N-((1s,4s)-4-(3-chloro-4-cyanophenoxy)cyclohexyl)-5-(4-((3aR,5R,6aS)-2-(2-(2,6-dioxopiperidin-3-yl)-6-fluoro-1,3-dioxoisoindolin-5-yl)octahydrocyclopenta[c]pyrrol-5-yl)piperazin-1-yl)pyrazine-2-carboxamide]	–	C (49%-25%)
N#Cc1ccc(O[C@H]2CC[C@H](NC(=O)c3ccc(N4CCC5(CC4)CN(C4CCN(c6ccc7c(c6)C(=O)N(C6CCC(=O)NC6=O)C7=O)CC4)C5)nn3)CC2)cc1Cl (stereo partly drawn) [Compound 74]	> 80	–
CC1(C)[C@H](Oc2ccc(C#N)c(Cl)c2)C(C)(C)[C@H]1N1Cc2nc(C#CC3CN(C4CCN(c5ccc6c(c5)C(=O)N(C5CCC(=O)NC5=O)C6=O)CC4)C3)ccc2C1=O (stereo partly drawn) [Compound 319, 2-Chloro-4-((1r,3r)-3-(2-((1-(1-(2-(2,6-dioxopiperidin-3-yl)-1,3-dioxoisoindolin-5-yl)piperidine-4-yl)azelaic acid-3-yl)ethynyl)-5-oxo-5H-pyrrolo[3,4-b]pyridin-6(7H)-yl)-2,2,4,4-tetramethylcyclobutoxy)benzonitrile]	< 25	–
N#Cc1ccc(OC2CCC(NC(=O)c3ccc(N4C[C@H]5CC(N6CCN(c7cc8c(cc7F)C(=O)N(C7CCC(=O)NC7=O)C8=O)CC6)C[C@H]5C4)nn3)CC2)cc1Cl (stereo partly drawn) [Compound 292, N-((1s,4S)-4-(3-chloro-4-cyanophenoxy)cyclohexyl)-6-((3aR,5R,6aS)-5-(4-(2-(2,6-dioxopiperidin-3-yl)-6-fluoro-1,3-dioxoisoindolin-5-yl)piperazin-1-yl)hexahydrocyclopenta[c]pyrrole-2(1H)-yl)pyridazine-3-formamide]	–	D (<25%)
N#Cc1ccc(O[C@H]2CC[C@H](N3Cc4nc(C#CC5CCN(C6CCN(c7cc8c(cc7F)C(=O)N(C7CCC(=O)NC7=O)C8=O)CC6)CC5)ccc4C3=O)CC2)cc1Cl (stereo partly drawn) [Compound 324, 2-Chloro-4-((1r,4r)-4-(2-((1′-(2,6-dioxopiperidin-3-yl)-6-fluoro-1,3-dioxoisoindolin-5-yl)-1,4′-dipiperidine-4-yl)ethynyl)-5-oxo-5H-pyrrolo[3,4-b]pyridin-6(7H)-cyclohexaneoxy)benzonitrile]	25 to 49	–
CC1(C)[C@H](Oc2ccc(C#N)c(Cl)c2)C(C)(C)[C@H]1N1Cc2nc(C#CC3CCN(CC4CN(c5cc6c(cc5F)C(=O)N(C5CCC(=O)NC5=O)C6=O)C4)CC3)ccc2C1=O (stereo partly drawn) [Compound 334]	> 80	–
CC1(C)C(NC(=O)c2ccc(N3C[C@@H]4C(CN5CCN(c6cc7c(cc6F)C(=O)N(C6CCC(=O)NC6=O)C7=O)CC5)[C@@H]4C3)nn2)C(C)(C)C1Oc1ccc(C#N)c(Cl)c1 (stereo partly drawn) [Compound 181, N-((1r,3R)-3-(3-chloro-4-cyanophenoxy)-2,2,4,4-tetramethylcyclobutyl)-6-((1R,5S,6S)-6-((4-(2-(2,6-dioxopiperidin-3-yl)-6-fluoro-1,3-dioxoisoindolin-5-yl)piperazin-1-yl)methyl)-3-azabicyclo[3.1.0]hexan-3-yl)pyridazine-3-formamide]	–	B (79%-50%)

Further lines, with some results ahead:

inhibition at 0.1 µM [%]	SMILES	% degradation
50 to 79	CC1(C)[C@H](NC(=O)c2ccc(N3CC4CN(CC5CN(c6cc7c(cc6F)C(=O)N(C6CCC(=O)NC6=O)C7=O)C5)CC4C3)nn2)C(C)(C)[C@H]1Oc1ccc(C#N)c(Cl)c1 (stereo partly drawn) [Compound 161, N-((1r,3r)-3-(3-chloro-4-cyanophenoxy)-2,2,4,4-tetramethylcyclobutyl)-6-(5-((1-(2-(2,6-dioxopiperidin-3-yl)-6-fluoro-1,3-dioxoisoindolin-5-yl)azelaic acid-3-yl)methyl)hexahydropyrrolo[3,4-c]pyrrol-2(1H)-pyrazole)formamide]	–
> 80	N#Cc1ccc(O[C@H]2CC[C@H](NC(=O)c3cnc(N4CCC5(CC4)CN(C4CCN(c6cc7c(cc6F)C(=O)N(C6CCC(=O)NC6=O)C7=O)CC4)C5)cn3)CC2)cc1Cl (stereo partly drawn) [Compound 289]	–
< 25	N#Cc1ccc(O[C@H]2CC[C@H](NC(=O)c3cnc(N4CCN([C@@H]5C[C@@H]6CN(c7cc8c(cc7F)C(=O)N(C7CCC(=O)NC7=O)C8=O)C[C@@H]6C5)CC4)nc3)CC2)cc1Cl (stereo partly drawn) [Compound 299, N-((1r,4r)-4-(3-chloro-4-cyanophenoxy)cyclohexyl)-2-(4-((3aR,5R,6aS)-2-(2-(2,6-dioxopiperidin-3-yl)-6-fluoro-1,3-dioxoisoindolin-5-yl)octahydrocyclopenta[c]pyrrol-5-yl)piperazin-1-yl)pyrimidine-5-formamide]	–
> 80	N#Cc1ccc(O[C@H]2CC[C@H](NC(=O)c3ccc(N4C[C@H]5C[C@@H](CN6CC7CN(c8cc9c(cc8F)C(=O)N(C8CCC(=O)NC8=O)C9=O)CC7C6)C[C@H]5C4)nn3)CC2)cc1Cl (stereo partly drawn) [Compound 222, N-((1r,4r)-4-(3-chloro-4-cyanophenoxy)cyclohexyl)-6-((3aR,5R, 6aS)-5-((5-(2-(2,6-dioxopiperidin-3-yl)-6-fluoro-1,3-dioxoisoindolin-5-yl)hexahydropyrrolo[3,4-c]pyrrol-2(1H)-yl)methyl)hexahydrocyclopenta[c]pyrrole-2(1H)-yl)pyridazine-3-formamide]	–
> 80	N#Cc1ccc(O[C@H]2CC[C@H](NC(=O)c3cnc(N4CCC(N5CC6(CCN(c7cc8c(cc7F)C(=O)N(C7CCC(=O)NC7=O)C8=O)CC6)C5)CC4)cn3)CC2)cc1Cl (stereo partly drawn) [Compound 228, N-((1r,4r)-4-(3-chloro-4-cyanophenoxy)cyclohexyl)-5-(4-(7-(2-(2,6-dioxopiperidin-3-yl)-6-fluoro-1,3-dioxoisoindolin-5-yl)-2,7-diazaspiro[3.5]nonan-2-yl)piperidin-1-yl)pyrazine-2-carboxamide]	–
> 80	N#Cc1ccc(O[C@H]2CC[C@H](NC(=O)c3ccc(N4CC5CN(CC6CCN(c7ccc8c(c7)C(=O)N(C7CCC(=O)NC7=O)C8=O)CC6)CC5C4)nn3)CC2)cc1Cl (stereo partly drawn) [Compound 260, N-((1r,4r)-4-(3-chloro-4-cyanophenoxy)cyclohexyl)-6-(5-((1-(2-(2,6-dioxopiperidin-3-yl)-1,3-dioxoisoindolin-5-yl)piperidine-4-yl)methyl)hexahydropyrrolo[3,4-c]pyrrol-2(1Ji)-yl)pyridazine-3-carboxamide]	–
50 to 79	N#Cc1ccc(O[C@H]2CC[C@H](NC(=O)c3cnc(N4C[C@H]5C[C@@H](N6CCN(c7cc8c(cc7F)C(=O)N(C7CCC(=O)NC7=O)C8=O)CC6)C[C@H]5C4)cn3)CC2)cc1Cl (stereo partly drawn) [Compound 293, N-((1r,4r)-4-(3-chloro-4-cyanophenoxy)cyclohexyl)-5-((3aR,5R,6aS)-5-(4-(2-(2,6-dioxopiperidin-3-yl)-6-fluoro-1,3-dioxoisoindolin-5-yl)piperazin-1-yl)hexahydrocyclopenta[c]pyrrole-2(1H)-yl)pyrazine-2-carboxamide]	–
